In PubChem BioAssay (NCI):
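Each compound was tested at five concentrations against cells in 96-well plates for 48 hours. Definition used: TGI = concentration required for complete inhibition of growth.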

How the values were obtained:
Experiment in all cases: inhibition of tumour cell growth, NCI panel, 48 h
A498 renal = tested on: A498 renal
HOP-92 NSCLC = tested on: HOP-92 NSCLC
LOX IMVI melanoma = tested on: LOX IMVI melanoma
MDA-MB-231 breast = tested on: MDA-MB-231 breast
NCI-H226 lung = tested on: NCI-H226 lung
NCI-H23 lung = tested on: NCI-H23 lung
OVCAR-5 ovarian = tested on: OVCAR-5 ovarian
OVCAR-8 ovarian = tested on: OVCAR-8 ovarian
PC-3 prostate = tested on: PC-3 prostate
SF-268 CNS = tested on: SF-268 CNS
SK-OV-3 ovarian = tested on: SK-OV-3 ovarian
SR leukemia = tested on: SR leukemia
U251 CNS = tested on: U251 CNS
UACC-257 melanoma = tested on: UACC-257 melanoma

Structure (SMILES) | TGI (A498 renal) [µM] | TGI (HOP-92 NSCLC) [µM] | TGI (LOX IMVI melanoma) [µM] | TGI (MDA-MB-231 breast) [µM] | TGI (NCI-H226 lung) [µM] | TGI (NCI-H23 lung) [µM] | TGI (OVCAR-5 ovarian) [µM] | TGI (OVCAR-8 ovarian) [µM] | TGI (PC-3 prostate) [µM] | TGI (SF-268 CNS) [µM] | TGI (SK-OV-3 ovarian) [µM] | TGI (SR leukemia) [µM] | TGI (U251 CNS) [µM] | TGI (UACC-257 melanoma) [µM]
CC1(C)O[C@H]2[C@@H]3N=C(c4ccccc4)O[C@@H]3C=C[C@H]2O1 | > 100 | > 100 | > 100 | > 100 | > 100 | > 100 | > 100 | > 100 | > 100 | 33.4 | > 100 | > 100 | > 100 | > 100
c1ccc2c(c1)CCN1CCc3c([nH]c4ccccc34)C21 (stereo not given) | 54.5 | 72.2 | 53.1 | > 100 | 97.5 | > 100 | > 100 | > 100 | 98.5 | > 100 | > 100 | 56.3 | > 100 | 91.6
CC(=O)N1C(C(=O)NNc2ccccc2)CSC1c1ccccc1 (stereo not given) | > 100 | > 100 | > 100 | > 100 | > 100 | > 100 | > 100 | > 100 | > 100 | > 100 | > 100 | > 100 | > 100 | > 100
CC(C)/C(Cl)=N\OC(=O)Nc1ccc(F)c([N+](=O)[O-])c1 | 41.7 | 4.77 | 10.7 | 28.9 | 50.1 | 41.2 | 42.8 | 10.9 | 32.2 | 27.6 | 34 | 26.3 | 31.1 | 33.5
Cc1ccc(S(=O)C[C@@]2(C(F)F)NC(=O)NC2=O)cc1 (stereo not given in full) | > 100 | > 100 | > 100 | > 100 | > 100 | > 100 | > 100 | > 100 | > 100 | > 100 | > 100 | > 100 | > 100 | > 100
COc1ccc(N2CCN(Cc3c(C(C)=O)[n+](=O)c4ccccc4n3[O-])CC2)cc1 | > 100 | > 100 | > 100 | > 100 | > 100 | > 100 | > 100 | > 100 | > 100 | > 100 | > 100 | > 100 | > 100 | > 100
O=C1/C(=C/c2ccc(Cl)cc2)N=C(c2ccccc2)N1C1Nc2cc3c(cc2S1)NC(N1C(=O)/C(=C/c2ccc(Cl)cc2)N=C1c1ccccc1)S3 (stereo not given) | > 100 | > 100 | > 100 | > 100 | > 100 | > 100 | > 100 | > 100 | > 100 | > 100 | > 100 | 74.1 | > 100 | > 100
CCCN1CN(c2ccccc2)C2(CCN(CCCC(=O)c3ccc(F)cc3)CC2)C1=O | 5.67 | 8.98 | 17.1 | 18.1 | 22.3 | 17.3 | 20.2 | 32.6 | 27.6 | 23.8 | 43.1 | 41.4 | 30.7 | 6.09
O=C(O)CSc1nnc(CCCCCCCCc2nnc(SCC(=O)O)o2)o1 | > 100 | > 100 | > 100 | > 100 | > 100 | > 100 | > 100 | > 100 | > 100 | > 100 | > 100 | > 100 | > 100 | > 100
O=Cc1[nH]c(=O)[nH]c(=O)c1CCl | > 100 | > 100 | > 81.7 | > 100 | > 100 | > 100 | > 100 | > 100 | > 100 | > 100 | > 100 | 57.7 | > 100 | > 100
